Test results from US20240000939A1, “METHODS OF PERSONALIZED PRECONDITIONING FOR CELL THERAPY” (priority 2021, published 2024).
Entries after “also recorded” stand apart in the source; their conditions may differ.

Columns and labels:
[1] = tested on: R/R B-cell ALL (B-ALL); experiment: Retrospective PRWCC analysis: response, relapse, composite endpoint (relapse or loss of BCA) and overall survival after tisagenlecleucel; assay type: in vivo, human; settings: for HR, overall survival, patients with high pre-infusion disease burden: sub-optimal fludarabine exposure
[2] = Retrospective PRWCC analysis: toxicity (CRS, neurotoxicity/ICANS, infection, neutropenia, cause of death) after tisagenlecleucel; assay type: in vivo, human
Experimental: Study Design. A retrospective analysis of pediatric and young adult patients with R/R B-ALL as part of the Pediatric Real-World CAR Consortium (PRWCC; n=15 centers) was conducted. Two hundred (n=200) patients underwent collection/manufacture for planned standard-of-care CD19-specific CAR T cell therapy (tisagenlecleucel).
Outcomes of interest. The main outcomes of interest were overall survival (OS), cumulative incidence of relapse (CIR), and the cumulative incidence of a composite endpoint (relapse or loss of BCA). Other outcomes of interest were response rates, cytokine release syndrome (CRS), and immune effector cell associated neurotoxicity syndrome (ICANS). Complete remission (CR) was defined as ≤5% bone marrow blasts by morphology, absence of circulating lymphoblasts, and no evidence of extramedullary disease. MRD negativity was defined as <0.01% abnormal B cells assessed by flow cytometry. Relapse was defined as any (medullary or extramedullary) evidence of hematologic, cytogenetic, and/or molecular recurrence of primary disease. CD19-positive B cell recovery was defined as any detectable CD19-positive B cells ([…]) on a peripheral blood lymphocyte flow cytometry panel. Toxicity grading was described according to ASTCT (Lee et al., Biol Blood Marrow Transplant. 04 2019; 25 (4):625-638) for CRS and ICANS. Additionally, patients were further delineated based on their disease burden: high disease burden (≥5% lymphoblasts, CNS3 disease and/or isolated EM disease), and no (undetectable) or low disease burden (<5% lymphoblasts, ≤CNS2 disease, and/or no detectable EM disease) based off the previous PRWCC analysis (Schultz et al., Blood. 2020; 136 (Supplement 1):14-15). The fludarabine exposure, area under the curve (AUC), for each patient was calculated using a population PK model as previously described in Langenhorst et al., Clin Pharmacokinet. May 2019; 58 (5):627-637. The patient variables required to calculate an estimated fludarabine exposure include estimated GFR (using either the Cockroft-Gault or Schwartz equation depending on age), actual body weight, height, and dosage of fludarabine utilized where actual body weight and estimated GFR are the best predictors of fludarabine PK (Langenhorst et al., Clin Pharmacokinet. May 2019; 58 (5):627-637).
Statistical Analysis. For all analyses, tisagenlecleucel infusion date was considered time zero (0). The impact of different factors on the chance of response was assessed through Mann-Whitney-Wilcoxon test for continuous variables, Chi-squared or Fisher's exact test for categorical variables (univariable analysis), and logistic regression (multivariable analysis). OS for all treated patients was defined as the time from infusion to death from all causes. OS in responding patients was defined as time from day of response (day 28 from CAR infusion) to death from all causes. Patients alive were censored at their last follow-up date. Time-to-relapse was defined as the time from the date of infusion to the date of disease relapse, while time-to-composite endpoint was defined as the time from the date of infusion to the date of either disease relapse or loss of BCA, whichever came first. For both endpoints, patients alive without disease relapse (and loss of BCA for composite endpoint) were censored at their date of last follow-up. Death and allo-HCT without disease relapse (and loss of BCA) were considered competing events. […]

[3] = Estimated fludarabine exposure (AUC) calculated with a population PK model; set-up: species or system human
[4] = multivariable, AUC <13.8 (sub-optimal) vs ≥13.8 mg*hr/L (ref), responding patients
[5] = univariable, AUC <13.8 vs ≥13.8 mg*hr/L (ref)
[6] = univariable, AUC <13.8 vs ≥13.8 mg*hr/L (ref), responding patients

tisagenlecleucel
12-month OS ([1]; Example 1): 75%
12-month cumulative incidence of relapse in responders ([1]; Example 1): 39.2%
12-month CIR in responding patients ([1]; Example 2): 36.4%
12-month OS ([1]; Example 2, entire cohort): 75.1%
24-month OS ([1]; Example 2, entire cohort): 56.5%
cumulative incidence of composite endpoint (relapse or loss of BCA) ([1]; at 12-months, responding patients): 55.2%
loss of BCA post CAR ([1]; n=152): (34%)
relapsed post CAR ([1]; n=152): (36%)
CD19-negative relapse ([1]; share of relapses post CAR): (45%)
CD19-positive relapse ([1]; share of relapses post CAR): (55%)
severe neurotoxicity (grade 3 or higher) ([2]; all patients, 12/152): 8%
severe CRS (sCRS; grade 3 or higher) ([2]; all patients, 33/152): 22%
neurotoxicity ([2]; all patients, 36/152): 24%
infection post CAR T cell therapy ([2]; all patients, 57/152): 38%
Grade 4 neutropenia ([2]; all patients, 97/148): 66%
CRS ([2]; all patients, 97/152): 64%
CRS grade 1 ([2]; n=152): (24%)
CRS grade 2 ([2]; n=152): (18%)
CRS grade 3 ([2]; n=152): (11%)
CRS grade 4 ([2]; n=152): (10%)
CRS grade 5 ([2]; n=152): (1%)
CRS grade none ([2]; n=152): (36%)
Neurotoxicity grade 1 ([2]; n=152): (11%)
Neurotoxicity grade 2 ([2]; n=152): (5%)
Neurotoxicity grade 3 ([2]; n=152): (5%)
Neurotoxicity grade 4 ([2]; n=152): (2%)
Neurotoxicity grade 5 ([2]; n=152): (1%)
Neurotoxicity grade none ([2]; n=152): (76%)
Cause of death: ARDS/cardiac arrest ([2]; share of deaths): (2%)
Cause of death: CRS ([2]; share of deaths): (2%)
Cause of death: Infection ([2]; share of deaths): (10%)
Cause of death: Leukemia ([2]; share of deaths): (74%)
Cause of death: Neurotoxicity ([2]; share of deaths): (2%)
Cause of death: Transplant related ([2]; share of deaths): (7%)

Nc1nc(F)nc2c1ncn2[C@@H]1O[C@H](CO)[C@@H](O)[C@@H]1O [fludarabine, reference compound]
odds ratio of response by cumulative Flu AUC (mg*hr/L) ([1]; multivariable analysis, AUC as continuous variable): 0.81
HR, overall survival in responding patients ([1]; multivariable, AUC <13.8 (sub-optimal) vs ≥13.8 mg*hr/L (ref)): 1.97
HR, overall survival in all treated patients ([1]; multivariable, AUC <13.8 (sub-optimal) vs ≥13.8 mg*hr/L (ref), entire cohort): 1.53
HR, cumulative incidence of composite endpoint (relapse or loss of B-cell aplasia) [1, 4]: 1.96
HR, cumulative incidence of relapse [1, 4]: 2.45
HR, overall survival, patients with high pre-infusion disease burden ([1]; all treated patients): 2.27
HR, overall survival, patients with high pre-infusion disease burden ([1]; responding patients only): 3.50
HR, overall survival in all treated patients [1, 5]: 1.51
HR, overall survival in responding patients [1, 5]: 2.25
HR, cumulative incidence of composite endpoint (relapse or loss of B-cell aplasia) [1, 6]: 1.77
HR, cumulative incidence of relapse [1, 6]: 1.95
patients who died from infection ([2]; all received suboptimal fludarabine): four
infection risk with increased fludarabine exposure (≥13.8 mg*hr/L) ([2]; in vivo): no apparent increased infection risk
association of optimal fludarabine exposure with toxicity (CRS, neurotoxicity) ([2]; neurotoxicity limited to ICANS graded patients): not associated with increased CRS or neurotoxicity; also recorded: No increase in toxicity
ICANS grade ≥3 (sICANS) ([2]; optimal flu (≥13.8 mg*hr/L), 5/67): 7%
ICANS grade ≥3 (sICANS) ([2]; optimal flu (≥13.8 mg*hr/L), 5/67, listed as flu): (7%)
ICANS grade ≥1 ([2]; optimal flu (≥13.8 mg*hr/L), 15/67): 22%
ICANS grade ≥1 ([2]; optimal flu (≥13.8 mg*hr/L), 15/67, listed as flu): (22%)
CRS grade ≥3 (sCRS) ([2]; optimal flu (≥13.8 mg*hr/L), 18/102): 18%
CRS grade ≥3 (sCRS) ([2]; optimal flu (≥13.8 mg*hr/L), 18/102, listed as flu): (18%)
infection post CAR T cell therapy ([2]; optimal fludarabine exposure, 36/102): 35%
Grade 4 neutropenia ([2]; patients receiving optimal fludarabine): 65%
Grade 4 neutropenia ([2]; patients receiving suboptimal fludarabine): 67%
ICANS grade ≥3 (sICANS) ([2]; sub-optimal flu (<13.8 mg*hr/L), 4/31): 13%
ICANS grade ≥3 (sICANS) ([2]; sub-optimal flu (<13.8 mg*hr/L), 4/31, listed as flu): (13%)
ICANS grade ≥1 ([2]; sub-optimal flu (<13.8 mg*hr/L), 9/31): 29%
ICANS grade ≥1 ([2]; sub-optimal flu (<13.8 mg*hr/L), 9/31, listed as flu): (29%)
CRS grade ≥3 (sCRS) ([2]; sub-optimal flu (<13.8 mg*hr/L), 15/50): 30%
CRS grade ≥3 (sCRS) ([2]; sub-optimal flu (<13.8 mg*hr/L), 15/50, listed as flu): (30%)
infection post CAR T cell therapy ([2]; suboptimal fludarabine exposure, 21/50): 42%
fludarabine AUC threshold of interest for disease relapse ([3]; Example 1, exposure analyzed as continuous variable (FIG. 1)): 13800 ng·h/mL
optimal fludarabine exposure (AUC) ([3]; Example 2, where hazard ratio curve for CIR crosses HR=1): ≥ 13800 ng·h/mL
